Data from article PMC11157491, “Novel Alaninamide Derivatives with Drug-like Potential for Development as Antiseizure and Antinociceptive Therapies—In Vitro and In Vivo Characterization” (ACS Chemical Neuroscience, 2024).

What was measured:
[1] = test system: mice; experiment: Maximal electroshock (MES) seizure test; assay type: in vivo; conditions: for responders at 100 mg/kg / ED50: Mus musculus, ip; for responders at 100 mg/kg: read-out: MES: number of mice protected/number of mice tested (converted); for ED50: mice, pretreatment 0.5 h
Text: Identification and profiling of new ASM candidate compounds are still largely based on predictive animal models of seizures/epilepsy, while a range of in silico and in vitro approaches (i.e., molecular modeling or high throughput screening, etc.) are increasingly used in the early stages of ASM discovery.[31] The Epilepsy Therapy Screening Program (ETSP) of the National Institute of Neurological Disorders and Stroke (NIH, Bethesda, MD) has enabled the discovery of several approved ASMs by focusing on the in vivo testing of compounds synthesized by both academic laboratories and industry.[32] The ETSP provides a broad panel of seizure tests (ca. 30 rodent models), but a subset of them is used for the initial screening of new compounds with potential antiseizure activity. The routinely used seizure models include: (i) the MES test, which is an experimental model of tonic–clonic seizures, (ii) the 6 Hz model (32 mA) of focal seizures, and (iii) the scPTZ model of generalized absence or myoclonic seizures.[33],[34] Consequently, in the current studies, all final compounds 21–36 and 45–48 were initially studied in the MES and the 6 Hz (32 mA) seizure models after intraperitoneal (i.p.) administration at a screening dose of 100 mg/kg in mice at a time point of 0.5 h (the screening group consisted of four mice, and the results obtained are summarized in Table S1).
(§1) These parameters were then used to calculate the protective indexes (PIs, PI = TD50/ED50), which describe the therapeutics window of potential drug candidates. The ED50, TD50, and PI values for the tested compounds together with data of their chemical prototypes KA-11 and KJ-5 and reference ASMs are summarized in Table 2.
The adult male Albino Swiss mice weighed between 22 and 26 g were used in the in vivo studies. They were housed under standardized housing conditions in colony cages and had free access to food as well as tap water. The animals were left to adapt under laboratory conditions for 7 days. All procedures involving animals and their care were performed in accordance with the current European Community and Polish legislation on animal experimentation.
(§2) In the initial screening studies, four mice per group were randomly assigned to each experimental group (each mouse was used only once). To evaluate the ED50 or TD50 values, four groups consisting of eight animals were injected with various doses of tested compounds. The protective indexes (PIs) for the compounds investigated and reference ASMs were calculated by dividing the TD50 value, as determined in the chimney test, by the respective ED50 value, as determined in the MES, scPTZ, or 6 Hz (32 or 44 mA) tests (PI = TD50/ED50). The PIs are a measure of the potential therapeutic window of the tested agent.
(§3) All substances were suspended in Tween 80 (1% aqueous solution) and administered i.p. as a single injection at a dose of 10 mL/kg. On each day of experimentation, fresh solutions were prepared. The detailed in vivo procedures are described elsewhere: the maximal electroshock seizure test (MES),[60] the subcutaneous pentylenetetrazole seizure test (scPTZ),[61] the 6 Hz psychomotor seizure model (32 and 44 mA),[62] and the chimney test.[63] The reference ASMs were purchased from commercial suppliers: VPA (Sigma-Aldrich, St. Louis, MO), LCS, and LEV (UCB Pharma, Braine l’Alleud, Belgium).

[2] = test system: human liver microsomes (HLMs); experiment: Metabolic stability in human liver microsomes; assay type: in vitro ADME
Text: Molecular mass Molecular mass of the
Substrate (m/z) metabolite (m/z) Metabolic pathway
* Reference unstable drug; metabolic stability determined using the same procedure published previously

[3] = test system: Na^+ channel (site 2); experiment: Na+ channel (site 2) radioligand binding; conditions: 100 μM, rat cerebral cortex
Protocol: Importantly, sodium or calcium conductance is often associated with the pathophysiology of epilepsy as well as neuropathic pain.[46]−[50] Therefore, both sodium and calcium ion channels are well-established molecular targets for structurally diverse ASMs such as LCS, lamotrigine, carbamazepine, oxcarbazepine, etc.[51] Consequently, we carried out binding and/or functional studies toward the sodium channel (site 2) and calcium Cav1.2 channel at high concentrations (100 μM) of 26 and 28 (Table 5). […] Next, 26 and 28 due to the presence of the phenylpiperazine moiety, which is a well-recognized pharmacophore for serotoninergic receptor (5-HTxR) ligands,[52] were evaluated for their influence on 5-HT2CR, where stimulation plays a key role for the antiseizure activity of lorcaserin (one of the newest ASMs).[6]
Binding/functional studies were carried out commercially in Eurofins Laboratories (Poitiers, France) and Eurofins Panlabs Discovery Services Taiwan, Ltd. (New Taipei City, Taiwan) using testing procedures that were reported previously (for details, see Table S2).
Table S2. Radioligand binding and functional assays. […]
Assays were performed commercially in Eurofins Laboratories ( Poitiers, France) or Eurofins Panlabs Discovery Services
Taiwan, Ltd. (New Taipei City, Taiwan).

[4] = test system: mice; experiment: Timed ivPTZ seizure threshold test; assay type: in vivo; conditions: 50 mg/kg i.p.
Text: The timed intravenous (iv) PTZ-induced seizure test was used to characterize the acute effect of compounds 26 and 28 on the thresholds for myoclonic, clonic, and tonic seizure in mice (Figure 2). It is noteworthy that the ivPTZ seizure test is a very sensitive method for determining the compounds’ effects on seizure threshold in rodents.[35] […] In the ivPTZ seizure test, bilateral forelimb tonic extension is usually quickly followed by hindlimb tonic extension and death due to respiratory arrest. […] In mice with no forelimb tonus, PTZ infusion was stopped after 180 s and the threshold dose of PTZ (in mg/kg) was calculated in those mice taking 180 s as infusion duration.
Figure 2 Acute effects of compounds 26 (A) and 28 (B) on seizure thresholds in the timed ivPTZ seizure test in mice. Both compounds were administered i.p. at a dose of 50 mg/kg, 30 min before the test. Control animals received vehicle. Data are presented as means (mg/kg PTZ) ± SEM (n = 9–13 animals). The statistical significance was evaluated by a Student’s t-test: *p < 0.05, **p < 0.01, ***p < 0.001, and ****p < 0.0001, as compared to the vehicle-treated group (GraphPad Prism 8).
In studies assessing the acute effect of compounds 26 and 28 on the ivPTZ seizure threshold and neuromuscular strength, the compounds were suspended in a 1% solution of Tween 80 and administered i.p., at a dose of 50 mg/kg of body weight, 30 min before the tests. The experimental procedures of the timed ivPTZ test and the grip strength test were described in detail elsewhere.[64]
Data from the ivPTZ test and the grip strength test were analyzed using Student’s t-test.

[5] = test system: mice; experiment: Subcutaneous pentylenetetrazole (scPTZ) seizure test; assay type: in vivo; conditions: 100 mg/kg i.p.; for scPTZ: number of mice protected/number of mice tested: 0.5 h
Text: as §1, §2, §3

[6] = PAMPA passive permeability; assay type: in vitro ADME; conditions: precoated PAMPA Plate System; for Papp: read-out: PAMPA—Pe ± SD
Text: The precoated parallel artificial membrane permeability assay (PAMPA) was used to determine the passive mechanism of permeability.

## CC(=O)NC(C)C(=O)N1CCN(c2cccc(C(F)(F)F)c2)CC1 (stereo not drawn) [Compound 26, N-(1-oxo-1-(4-(3-(Trifluoromethyl)phenyl)piperazin-1-yl)propan-2-yl)acetamide]
[1]; 100 mg/kg i.p., 0.5 h, four mice
  antiseizure protection in MES screening: 100%
[1]; 100 mg/kg i.p., 0.5 h
  responders at 100 mg/kg: 100%
[1]
  ED50: 64.3 mg/kg
[2]
  number of metabolites found after incubation with HLMs: two
[2]; MS supported by MetaSite
  metabolic pathway of metabolite M1: dehydrogenation and oxidation
  metabolic pathway of metabolite M2: dehydrogenation and oxidation
[3]
  % inhibition of control specific binding: 4.5 (100) %
[4]; 12 mice
  mice in which hindlimb tonus (only) was diminished/inhibited: 10 out of 12
[4]; 30 min before ivPTZ
  seizure threshold for generalized clonic seizure with loss of righting reflex: significantly raised
  seizure threshold for the first myoclonic twitch: significantly raised
  threshold for forelimb tonus: did not significantly affect
[5]
  protection in scPTZ screening: 25%
  scPTZ: number of mice protected/number of mice tested: 1/4
[6]
  PAMPA—Pe ± SD: 4.51 10^–6 cm/s
  Papp: 4.51 ± 0.61 ×10⁻⁶ cm/s

## CC(=O)NC(C)C(=O)N1CCN(c2cccc(OC(F)(F)F)c2)CC1 (stereo not drawn) [Compound 28, N-(1-oxo-1-(4-(3-(Trifluoromethoxy)phenyl)piperazin-1-yl)propan-2-yl)acetamide]
[1]; 100 mg/kg i.p., 0.5 h
  responders at 100 mg/kg: 100%
[1]
  ED50: 34.9 mg/kg
[2]
  number of metabolites found after incubation with HLMs: three
[2]; MS supported by MetaSite
  metabolic pathway of metabolite M1: double dehydrogenation
  metabolic pathway of metabolite M2: hydroxylation
  metabolic pathway of metabolite M3: double dehydrogenation
[3]
  % inhibition of control specific binding: –6.9 (100) %
[4]; 12 mice
  mice in which both fore- and hindlimb tonus were completely inhibited: 9 out of 12
  mice in which hindlimb tonus (only) was diminished/inhibited: 3 mice
[4]; 30 min before ivPTZ
  seizure threshold for generalized clonic seizure with loss of righting reflex: significantly raised
  seizure threshold for the first myoclonic twitch: significantly raised
[5]
  protection in scPTZ screening: 25%
  scPTZ: number of mice protected/number of mice tested: 1/4
[6]
  PAMPA—Pe ± SD: 5.95 10^–6 cm/s
  Papp: 5.95 ± 0.51 ×10⁻⁶ cm/s
